Measured values reported in patent publication US10610520B2, “Heterocyclic compound” (Takeda Pharmaceutical Company Limited, priority 2016, dated 2020).

Target: T1, His-hMAGL (recombinant polyhistidine tagged human MAGL protein) (Homo sapiens, UniProt Q99685)
T1 construct: made in house; host or cells: E. coli BL21(DE3)
T1 sequence (Q99685 1-303): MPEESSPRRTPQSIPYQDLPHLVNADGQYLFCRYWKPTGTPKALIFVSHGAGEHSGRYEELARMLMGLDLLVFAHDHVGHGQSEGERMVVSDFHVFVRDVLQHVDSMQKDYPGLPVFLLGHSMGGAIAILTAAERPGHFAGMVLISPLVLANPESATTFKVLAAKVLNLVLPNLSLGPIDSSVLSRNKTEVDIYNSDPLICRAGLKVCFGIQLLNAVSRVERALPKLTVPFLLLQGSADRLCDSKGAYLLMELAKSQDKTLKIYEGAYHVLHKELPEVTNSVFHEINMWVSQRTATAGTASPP
Test: Measurement of MAGL inhibitory activity (arachidonic acid production from 2-arachidonylglycerol, RapidFire-mass spectrometry)
Assay type: biochemical
Conditions: MAGL inhibitory rate, test compound 10 μM, 60 min preincubation, 2-arachidonylglycerol substrate
How it was run: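 Arachidonic acid formed was quantified by online solid-phase extraction and triple-quadrupole MS in negative SRM mode against a d8 internal standard. Reaction: recombinant His-hMAGL (7.5 ng/mL, pH 7.5 Tris buffer with Triton X-100 and BSA) plus 2-AG (5 μL of 150 μM stock) for 10 min at room temperature, quenched with 2% formic acid. Percent inhibition corrected for enzyme-free background.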

Row | SMILES | inhibition at 10 µM [%]
1 | COc1ccccc1-c1ccc2c(Cl)c(C(=O)N3CC4(CCC(=O)N4)C3)sc2c1 [Example 195, 2-((3-chloro-6-(2-methoxyphenyl)-1-benzothiophen-2-yl)carbonyl)-2,5-diazaspiro[3.4]octan-6-one] | 100
2 | O=C1CCC2(CN(C(=O)c3ccc4c(ccn4-c4ccc(C(F)(F)F)cn4)c3)C2)N1 [Example 14, 2-((1-(5-(trifluoromethyl)pyridin-2-yl)-1H-indol-5-yl)carbonyl)-2,5-diazaspiro[3.4]octan-6-one] | 96
3 | O=C1NC2(CO1)CN(C(=O)[C@H]1C[C@@H](OCc3ccc(Cl)cc3Cl)C1)C2 [Example 349, 2-((cis-3-((2,4-dichlorobenzyl)oxy)cyclobutyl)carbonyl)-7-oxa-2,5-diazaspiro[3.4]octan-6-one] | 100
4 | O=C1NC2(CO1)CN(C(=O)c1sc3c(F)c(OC(F)(F)F)ccc3c1Cl)C2 [Example 279, 2-((3-chloro-7-fluoro-6-(trifluoromethoxy)-1-benzothiophen-2-yl)carbonyl)-7-oxa-2,5-diazaspiro[3.4]octan-6-one] | 100
5 | O=C1CCC2(CN(C(=O)N3CC(COc4ccc5c(c4)CCCC5)C3)C2)N1 [Example 18, 2-((3-((5,6,7,8-tetrahydronaphthalen-2-yloxy)methyl)azetidin-1-yl)carbonyl)-2,5-diazaspiro[3.4]octan-6-one] | 100
6 | O=C1NC2(CO1)CN(C(=O)c1sc3ccc(C(F)(F)F)cc3c1Cl)C2 [Example 258, 2-((3-chloro-5-(trifluoromethyl)-1-benzothiophen-2-yl)carbonyl)-7-oxa-2,5-diazaspiro[3.4]octan-6-one] | 100
7 | O=C1CCC2(CN(C(=O)c3sc4cc(-c5ccc(F)c(Cl)c5)ccc4c3Cl)C2)N1 [Example 226, 2-((3-chloro-6-(3-chloro-4-fluorophenyl)-1-benzothiophen-2-yl)carbonyl)-2,5-diazaspiro[3.4]octan-6-one] | 99
8 | O=C1CCC2(CN(C(=O)c3sc4cc(-c5ccccc5F)ccc4c3Cl)C2)N1 [Example 38, 2-((3-chloro-6-(2-fluorophenyl)-1-benzothiophen-2-yl)carbonyl)-2,5-diazaspiro[3.4]octan-6-one] | 103
9 | O=C1CCC2(CN(C(=O)c3sc4cc(-c5cccnc5C(F)(F)F)ccc4c3Cl)C2)N1 [Example 230, 2-((3-chloro-6-(2-(trifluoromethyl)pyridin-3-yl)-1-benzothiophen-2-yl)carbonyl)-2,5-diazaspiro[3.4]octan-6-one] | 100
10 | O=C1CCC2(CN(C(=O)c3ccc(OCc4ccccc4)cc3)C2)N1 [Example 6, 2-(4-(benzyloxy)benzoyl)-2,5-diazaspiro[3.4]octan-6-one] | 87
11 | Cc1cc(-c2ccc3c(Cl)c(C(=O)N4CC5(CCC(=O)N5)C4)sc3c2)c(C)s1 [Example 233, 2-((3-chloro-6-(2,5-dimethyl-3-thienyl)-1-benzothiophen-2-yl)carbonyl)-2,5-diazaspiro[3.4]octan-6-one] | 101
12 | O=C1CCC2(CN(C(=O)c3sc4cc(-c5ccc(C(F)(F)F)nc5)ccc4c3Cl)C2)N1 [Example 228, 2-((3-chloro-6-(6-(trifluoromethyl)pyridin-3-yl)-1-benzothiophen-2-yl)carbonyl)-2,5-diazaspiro[3.4]octan-6-one] | 87
13 | O=C1CCC2(CN(C(=O)c3sc4cc(-c5cccc(F)c5F)ccc4c3Cl)C2)N1 [Example 215, 2-((3-chloro-6-(2,3-difluorophenyl)-1-benzothiophen-2-yl)carbonyl)-2,5-diazaspiro[3.4]octan-6-one] | 99
14 | O=C1CCC2(CN(C(=O)c3ccc(COc4ccccc4C(F)(F)F)cc3)C2)N1 [Example 5, 2-(4-((2-(trifluoromethyl)phenoxy)methyl)benzoyl)-2,5-diazaspiro[3.4]octan-6-one] | 99
15 | O=C1CCC2(CN(C(=O)c3ccc(-c4cccc(C5(C(F)(F)F)CC5)c4)cc3)C2)N1 [Example 64, 2-((3′-(1-(trifluoromethyl)cyclopropyl)biphenyl-4-yl)carbonyl)-2,5-diazaspiro[3.4]octan-6-one] | 99
16 | Cc1cc(-c2ccccc2)sc1C(=O)N1CC2(CCC(=O)N2)C1 [Example 129, 2-((3-methyl-5-phenyl-2-thienyl)carbonyl)-2,5-diazaspiro[3.4]octan-6-one] | 89
17 | O=C1NC2(CO1)CN(C(=O)c1sc3c(F)c(OC(F)(F)F)ccc3c1C(F)F)C2 [Example 360, 2-((3-(difluoromethyl)-7-fluoro-6-(trifluoromethoxy)-1-benzothiophen-2-yl)carbonyl)-7-oxa-2,5-diazaspiro[3.4]octan-6-one] | 100

Row | SMILES | inhibition at 10 µM [%]
18 | O=C1CCC2(CN(C(=O)c3sc4ccc(OC(F)(F)F)cc4c3Cl)C2)N1 [Example 253, 2-((3-chloro-5-(trifluoromethoxy)-1-benzothiophen-2-yl)carbonyl)-2,5-diazaspiro[3.4]octan-6-one] | 99
19 | O=C1CCC2(CN(C(=O)c3cc4cccc(Br)c4s3)C2)N1 [Example 146, 2-((7-bromo-1-benzothiophen-2-yl)carbonyl)-2,5-diazaspiro[3.4]octan-6-one] | 90
20 | O=C1CCC2(CN(C(=O)N3CCC(COc4ccc5c(c4)CCCC5)CC3)C2)N1 [Example 239, 2-((4-((5,6,7,8-tetrahydronaphthalen-2-yloxy)methyl)piperidin-1-yl)carbonyl)-2,5-diazaspiro[3.4]octan-6-one] | 101
21 | O=C1CCC2(CN(C(=O)c3sc4cc(C5=CCC(F)(F)CC5)ccc4c3Cl)C2)N1 [Example 179, 2-((3-chloro-6-(4,4-difluorocyclohex-1-en-1-yl)-1-benzothiophen-2-yl)carbonyl)-2,5-diazaspiro[3.4]octan-6-one] | 100
22 | O=C1NC2(CCN(C(=O)c3sc4cc(C(F)(F)F)c(F)cc4c3Cl)C2)CO1 (stereo not shown) [Example 343, 7-((3-chloro-5-fluoro-6-(trifluoromethyl)-1-benzothiophen-2-yl)carbonyl)-3-oxa-1,7-diazaspiro[4.4]nonan-2-one] | 100
23 | Cc1ccc(C)c(-c2ccc(C(=O)N3CC4(CCC(=O)N4)C3)cc2)c1 [Example 90, 2-((2′,5′-dimethylbiphenyl-4-yl)carbonyl)-2,5-diazaspiro[3.4]octan-6-one] | 92
24 | COc1ccc2c(Cl)c(C(=O)N3CC4(CCC(=O)N4)C3)sc2c1 [Example 139, 2-((3-chloro-6-methoxy-1-benzothiophen-2-yl)carbonyl)-2,5-diazaspiro[3.4]octan-6-one] | 99
25 | O=C1CCC2(CN(C(=O)c3ccc(-c4csc5ccccc45)cc3)C2)N1 [Example 67, 2-(4-(1-benzothiophen-3-yl)benzoyl)-2,5-diazaspiro[3.4]octan-6-one] | 100
26 | O=C1NC2(CO1)CN(C(=O)c1sc3ccc(OC(F)(F)F)cc3c1C(F)F)C2 [Example 300, 2-((3-(difluoromethyl)-5-(trifluoromethoxy)-1-benzothiophen-2-yl)carbonyl)-7-oxa-2,5-diazaspiro[3.4]octan-6-one] | 101
27 | O=C1NC2(CO1)CN(C(=O)[C@H]1C[C@@H](OCc3ccc(C(F)(F)F)c(Cl)c3)C1)C2 [Example 359, 2-((cis-3-((3-chloro-4-(trifluoromethyl)benzyl)oxy)cyclobutyl)carbonyl)-7-oxa-2,5-diazaspiro[3.4]octan-6-one] | 99
28 | Cc1ccc(OCC2CN(C(=O)N3CC4(CCC(=O)N4)C3)C2)c(Cl)c1 [Example 21, 2-((3-((2-chloro-4-methylphenoxy)methyl)azetidin-1-yl)carbonyl)-2,5-diazaspiro[3.4]octan-6-one] | 102
29 | Cc1c(OC(F)(F)F)ccc2c(Cl)c(C(=O)N3CCC4(COC(=O)N4)C3)sc12 (stereo not shown) [Example 329, 7-((3-chloro-7-methyl-6-(trifluoromethoxy)-1-benzothiophen-2-yl)carbonyl)-3-oxa-1,7-diazaspiro[4.4]nonan-2-one] | 100
30 | O=C1CCC2(CN(C(=O)N3CCC(C(F)(F)c4ccc(F)cc4)CC3)C2)N1 [Example 29, 2-((4-(difluoro(4-fluorophenyl)methyl)piperidin-1-yl)carbonyl)-2,5-diazaspiro[3.4]octan-6-one] | 98
31 | O=C1NC2(CO1)CN(C(=O)c1sc3cc(C(F)F)cc(C(F)(F)F)c3c1Cl)C2 [Example 291, 2-((3-chloro-6-(difluoromethyl)-4-(trifluoromethyl)-1-benzothiophen-2-yl)carbonyl)-7-oxa-2,5-diazaspiro[3.4]octan-6-one] | 101
32 | Cc1c(C(=O)N2CC3(CCC(=O)N3)C2)sc2cccc(F)c12 [Example 142, 2-((4-fluoro-3-methyl-1-benzothiophen-2-yl)carbonyl)-2,5-diazaspiro[3.4]octan-6-one] | 96
33 | O=C1NC2(CO1)CN(C(=O)c1sc3cc(OC(F)(F)F)cc(C(F)F)c3c1Cl)C2 [Example 316, 2-((3-chloro-4-(difluoromethyl)-6-(trifluoromethoxy)-1-benzothiophen-2-yl)carbonyl)-7-oxa-2,5-diazaspiro[3.4]octan-6-one] | 100
34 | Cc1ncccc1-c1ccc2c(Cl)c(C(=O)N3CC4(CCC(=O)N4)C3)sc2c1 [Example 229, 2-((3-chloro-6-(2-methylpyridin-3-yl)-1-benzothiophen-2-yl)carbonyl)-2,5-diazaspiro[3.4]octan-6-one] | 100
